Test results from patent publication EP3173083A1, “IN VIVO ANTIANGIOGENIC EFFECT OF A PALLADIUM COMPLEX” (Istanbul Universitesi Rektorlugu, priority 2015, dated 2017).

Tested on: CAM
Assay: chorioallantoic membrane (CAM) model of antiangiogenic effect
Format: in vivo, chicken
Conditions: for Score: average antiangiogenic score on CAM, evaluated by stereomicroscope 24 hours after pellet application; for antiangiogenic effect on CAM: effect class by scoring system of Table 1, 50 µg/pellet
From the text: In a study performed on the antiangiogenic effect of palladium complex of the invention, a method which is named chorioallantoic membrane (CAM) model is used. The model in question is a method developed by the embryologists more than 50 years ago, has a broad area of usage in embryonic researches (Auerbach, R., Lewis, R., Shinners, B., Kubai, L., Akhtar, N., 2003. Angiogenesis assays: a critical overview. Clin. Chem., 49(1): 32-40). Since 1956, the model is used in cancer and metastasis researches. The model has been started to be used in angiogenesis studies by Folkman in 1976. CAM is a non-embryo membrane which is formed by the merger of chorion and allantois as a result of an incubation of four-days. Although it is widely used in embryonic researches, it also has a broad range of usage in cancer and metastasis researches (Ribatti, D., 2010. The inefficacy of antiangiogenic therapies. J. Angiogenes. Res., 2:27. doi: 10.1186/2040-2384-2-27). […] The method is one of the most commonly used methods since it is quick, cheap and semi quantitative and enable scanning of many new agents (Cimpean, A.M., Ribatti, D., Raica, M., 2008. The chick embryo chorioallantoic membrane as a model to study tumor metastasis. Angiogenesis, 11(4): 311-319; Ribatti, D., 2008. Chick embryo chorioallantoic membrane as a useful tool to study angiogenesis. Int. Rev. Cell Mol. Biol., 270: 181-224).
The experiment Protocol which was reported in 1967 by D'Arcy and Howard and in 2002 by Bürgermeister and his colleagues was used (D'Arcy, P.F., Howard, E.M.,1967. A new anti-inflammatory test, utilizing the chorio-allantoic membrane of the chick embryo. Br. J. Pharmacol. Chemother., 29(3): 378-38; Bürgermeister, J., Paper, D.H., Vogl, H., Linhardt, R.J., Franz, G., 2002. LaPSvS1, a (1-->3)-beta-galactan sulfate and its effect on angiogenesis in vivo and in vitro. Carbohydr. Res., 337(16): 1459-1466).
The palladium complex, 5 mg/ml (50 µg /pellet), the standard control agents sodium dodecyl sulfate (SDS), cortisone, prednisone, (±)-thalidomide has been suspended in 2,5 % (w/v) agar at a final concentration of 50 µg /pellet by heating (60 °C<). Then, 10 µl is taken from this suspension and provided to become frozen pellet at room temperature by being applied on stainless steel cylinder supports with a diameter 5 mm. Pellets are applied onto the surface of CAM.
The procedure for CAM experiment is given in Figure 1 (Kiyan, H.T., 2010. Baz ? Hypericum Türlerinin Uçucu Yaǧ Bile ? imleri ve Antianjiyojenik Aktiviteleri, Yüksek Lisans Tezi, Anadolu Üniversitesi, Saǧl ? k Bilimleri Enstitüsü, Farmakognozi Program ? , 19p). Accordingly, fertilized chicken eggs to be used in experiment are incubated at 36,5 °C and in an incubator with 80% relative humidity (climatization cabin) at horizontal position for 72 hours before the experiment. In this period, eggs were carefully upturned time to time. At the end of the incubation period, firstly, from the bottom side of eggs with the help of the sterile injectors, 10-15 ml of albumin (egg white) is slowly removed and then from the top side of eggs (more upright and sharp part), shell and membrane are carefully removed with the help of the forceps (Figure-1, A). Living and developing embryo CAM immediately taken under protection with a stretch film, is waited again at 36,5 °C and in an incubator with 80% relative humidity for another 72 hours (Figure-1, B). When diameter of the CAM is detected to be approximately 2 cm, one piece of freshly prepared sample pellet for each egg is placed into the capillaries on the CAM (Figure-1, C). 15 pellets from each material is applied on CAM of an equal number of eggs and covered with stretch film. Before the evaluations, eggs were incubated for another 24 hours in such a way that pellets are placed in under specified conditions. […]

SMILES | Score (50 µg/pellet) | antiangiogenic effect on CAM | toxic or irritant effect on CAM (50 µg/pellet) | Irritation (%) (CAM, 50 µg/pellet, 24 hours after pellet application)
O=C1CCC(N2C(=O)c3ccccc3C2=O)C(=O)N1 (racemic) [(±)-Thalidomide] | 0.9 ± 0.2 | strong |  | 
C[C@]12CCC(=O)C=C1CC[C@@H]1[C@@H]2C(=O)C[C@@]2(C)[C@H]1CC[C@]2(O)C(=O)CO [Cortisone] | 1.2 ± 0.2 | very strong |  | 
O=C1c2ccccc2S(=O)(=O)[N]1[Pd-2]12[n+]3ccccc3-c3cccc([n+]31)-c1cccc[n+]12 [Palladium complex, [Pd(sac)(terpy)] (sac)•4H2O (sac=saccharinate and terpy=2,2':6',2"-terpyridine)]] |  | very strong | no toxic or irritant effect | 
C[C@]12C=CC(=O)C=C1CC[C@@H]1[C@@H]2C(=O)C[C@@]2(C)[C@H]1CC[C@]2(O)C(=O)CO [Prednisone] | 0.9 ± 0.7 | strong |  | 
CCCCCCCCCCCCOS(=O)(=O)[O-].[Na+] [Sodium dodecyl sulphate (SDS), Sodium dodecyl sulphate] | 0.1 ± 0.1 |  | irritant effect | 87 ± 5
